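Growth conditions: 96-well plates. Treatment: test compound, 48 hours, 5 concentrations. Analysis: linear interpolation between bracketing concentrations; unreached endpoints set to highest concentration. GI50: concentration for 50% inhibition of growth. The concentration for full growth arrest is given as TGI.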
What was measured:
Test in all cases: inhibition of tumour cell growth, NCI panel, 48 h
IGROV1 ovarian = test system: IGROV1 ovarian
BT-549 breast = test system: BT-549 breast
HCT-116 colon = test system: HCT-116 colon
NCI-H460 lung = test system: NCI-H460 lung
SK-MEL-2 melanoma = test system: SK-MEL-2 melanoma
HCC-2998 colon = test system: HCC-2998 colon
MALME-3M melanoma = test system: MALME-3M melanoma
NCI-H522 lung = test system: NCI-H522 lung
SN12C renal = test system: SN12C renal
OVCAR-4 ovarian = test system: OVCAR-4 ovarian
MOLT-4 leukemia = test system: MOLT-4 leukemia
UO-31 renal = test system: UO-31 renal
OVCAR-5 ovarian = test system: OVCAR-5 ovarian
HL-60(TB) leukemia = test system: HL-60(TB) leukemia
OVCAR-8 ovarian = test system: OVCAR-8 ovarian
OVCAR-3 ovarian = test system: OVCAR-3 ovarian
LOX IMVI melanoma = test system: LOX IMVI melanoma
TK-10 renal = test system: TK-10 renal
A549 NSCLC = test system: A549 NSCLC
SNB-19 CNS = test system: SNB-19 CNS
RXF 393 renal = test system: RXF 393 renal
786-0 renal = test system: 786-0 renal
DU-145 prostate = test system: DU-145 prostate
NCI-H226 lung = test system: NCI-H226 lung
COLO 205 colon = test system: COLO 205 colon
U251 CNS = test system: U251 CNS
NCI-H23 lung = test system: NCI-H23 lung
NCI/ADR-RES ovarian = test system: NCI/ADR-RES ovarian
SF-268 CNS = test system: SF-268 CNS
MDA-MB-435 = test system: MDA-MB-435
EKVX NSCLC = test system: EKVX NSCLC
HS 578T breast = test system: HS 578T breast
ACHN renal = test system: ACHN renal
HOP-62 NSCLC = test system: HOP-62 NSCLC
CAKI-1 renal = test system: CAKI-1 renal
SR leukemia = test system: SR leukemia
SNB-75 CNS = test system: SNB-75 CNS
PC-3 prostate = test system: PC-3 prostate
CCRF-CEM leukemia = test system: CCRF-CEM leukemia
KM12 colon = test system: KM12 colon
SK-MEL-28 melanoma = test system: SK-MEL-28 melanoma
T-47D breast = test system: T-47D breast
SF-539 CNS = test system: SF-539 CNS
SK-OV-3 ovarian = test system: SK-OV-3 ovarian
HCT-15 colon = test system: HCT-15 colon
M14 melanoma = test system: M14 melanoma
SF-295 CNS = test system: SF-295 CNS
UACC-257 melanoma = test system: UACC-257 melanoma
MCF7 breast = test system: MCF7 breast
HT29 colon = test system: HT29 colon
HOP-92 NSCLC = test system: HOP-92 NSCLC
UACC-62 melanoma = test system: UACC-62 melanoma
SW-620 colon = test system: SW-620 colon
MDA-MB-231 breast = test system: MDA-MB-231 breast
K-562 leukemia = test system: K-562 leukemia
RPMI-8226 leukemia = test system: RPMI-8226 leukemia
SK-MEL-5 melanoma = test system: SK-MEL-5 melanoma

`COc1cc(C(=O)/C=C/c2c(-c3ccc(F)cc3)nc3sc(C)cn23)cc(OC)c1OC` showed a GI50 (IGROV1 ovarian) of 8.71 µM, a TGI (IGROV1 ovarian) of over 100 µM and a GI50 (BT-549 breast) of 3.75 µM. The TGI (BT-549 breast) was over 100 µM, the GI50 (HCT-116 colon) was 2.92 µM and the TGI (HCT-116 colon) was over 100 µM. For the same compound, the GI50 (NCI-H460 lung) was 3.87 µM, the TGI (NCI-H460 lung) was over 100 µM and the GI50 (SK-MEL-2 melanoma) was 5.75 µM. It also gave a TGI (SK-MEL-2 melanoma) of over 100 µM, a GI50 (HCC-2998 colon) of 9.93 µM and a TGI (HCC-2998 colon) of over 100 µM. It also gave a GI50 (MALME-3M melanoma) of 2.69 µM, a TGI (MALME-3M melanoma) of over 100 µM and a GI50 (NCI-H522 lung) of 2.96 µM. It also gave a TGI (NCI-H522 lung) of over 100 µM, a GI50 (SN12C renal) of 9.01 µM and a TGI (SN12C renal) of over 100 µM. The GI50 (OVCAR-4 ovarian) was 2.28 µM, the TGI (OVCAR-4 ovarian) was over 100 µM and the GI50 (MOLT-4 leukemia) was 1.62 µM. The TGI (MOLT-4 leukemia) was 5.13 µM, the GI50 (UO-31 renal) was 2.95 µM and the TGI (UO-31 renal) was over 100 µM. The GI50 (OVCAR-5 ovarian) was over 100 µM, the TGI (OVCAR-5 ovarian) was over 100 µM and the GI50 (HL-60(TB) leukemia) was 2.87 µM. For the same compound, the TGI (HL-60(TB) leukemia) was over 100 µM, the GI50 (OVCAR-8 ovarian) was 4.94 µM and the TGI (OVCAR-8 ovarian) was over 100 µM. It also gave a GI50 (OVCAR-3 ovarian) of 3.66 µM, a TGI (OVCAR-3 ovarian) of over 100 µM and a GI50 (LOX IMVI melanoma) of 2.5 µM. The TGI (LOX IMVI melanoma) was over 100 µM, the GI50 (TK-10 renal) was 28 µM and the TGI (TK-10 renal) was over 100 µM. For the same compound, the GI50 (A549 NSCLC) was 9.34 µM, the TGI (A549 NSCLC) was over 100 µM and the GI50 (SNB-19 CNS) was 87.7 µM. It also gave a TGI (SNB-19 CNS) of over 100 µM, a GI50 (RXF 393 renal) of 5.75 µM and a TGI (RXF 393 renal) of over 100 µM. The GI50 (786-0 renal) was 8.88 µM, the TGI (786-0 renal) was over 100 µM and the GI50 (DU-145 prostate) was 7.52 µM. It also gave a TGI (DU-145 prostate) of over 100 µM, a GI50 (NCI-H226 lung) of 9.58 µM and a TGI (NCI-H226 lung) of over 100 µM. For the same compound, the GI50 (COLO 205 colon) was 4.94 µM, the TGI (COLO 205 colon) was over 100 µM and the GI50 (U251 CNS) was 4.07 µM. For the same compound, the TGI (U251 CNS) was over 100 µM, the GI50 (NCI-H23 lung) was 2.24 µM and the TGI (NCI-H23 lung) was 8.87 µM. The GI50 (NCI/ADR-RES ovarian) was 2.63 µM, the TGI (NCI/ADR-RES ovarian) was 15.8 µM and the GI50 (SF-268 CNS) was 15.2 µM. The TGI (SF-268 CNS) was over 100 µM, the GI50 (MDA-MB-435) was 1.75 µM and the TGI (MDA-MB-435) was 6.92 µM. It also gave a GI50 (EKVX NSCLC) of 2.29 µM, a TGI (EKVX NSCLC) of over 100 µM and a GI50 (HS 578T breast) of 8.29 µM. It also gave a TGI (HS 578T breast) of over 100 µM, a GI50 (ACHN renal) of 5.83 µM and a TGI (ACHN renal) of over 100 µM. The GI50 (HOP-62 NSCLC) was 85.1 µM, the TGI (HOP-62 NSCLC) was over 100 µM and the GI50 (CAKI-1 renal) was 1.78 µM. It also gave a TGI (CAKI-1 renal) of 53.1 µM, a GI50 (SR leukemia) of 0.802 µM and a TGI (SR leukemia) of over 100 µM. The GI50 (SNB-75 CNS) was 50.1 µM, the TGI (SNB-75 CNS) was over 100 µM and the GI50 (PC-3 prostate) was 2.41 µM. The TGI (PC-3 prostate) was over 100 µM, the GI50 (CCRF-CEM leukemia) was 7.19 µM and the TGI (CCRF-CEM leukemia) was over 100 µM. It also gave a GI50 (KM12 colon) of 3.63 µM, a TGI (KM12 colon) of over 100 µM and a GI50 (SK-MEL-28 melanoma) of 7.07 µM. The TGI (SK-MEL-28 melanoma) was over 100 µM, the GI50 (T-47D breast) was 2.93 µM and the TGI (T-47D breast) was over 100 µM. The GI50 (SF-539 CNS) was 6.23 µM, the TGI (SF-539 CNS) was over 100 µM and the GI50 (SK-OV-3 ovarian) was 6.12 µM. It also gave a TGI (SK-OV-3 ovarian) of over 100 µM, a GI50 (HCT-15 colon) of 3.75 µM and a TGI (HCT-15 colon) of over 100 µM. For the same compound, the GI50 (M14 melanoma) was 5.12 µM, the TGI (M14 melanoma) was over 100 µM and the GI50 (SF-295 CNS) was 2.33 µM. For the same compound, the TGI (SF-295 CNS) was 26.7 µM, the GI50 (UACC-257 melanoma) was 4.75 µM and the TGI (UACC-257 melanoma) was over 100 µM. It also gave a GI50 (MCF7 breast) of 1.81 µM, a TGI (MCF7 breast) of over 100 µM and a GI50 (HT29 colon) of 6.96 µM. For the same compound, the TGI (HT29 colon) was over 100 µM, the GI50 (HOP-92 NSCLC) was 0.155 µM and the TGI (HOP-92 NSCLC) was 6.32 µM. It also gave a GI50 (UACC-62 melanoma) of 2.91 µM, a TGI (UACC-62 melanoma) of over 100 µM and a GI50 (SW-620 colon) of 5.34 µM. It also gave a TGI (SW-620 colon) of over 100 µM, a GI50 (MDA-MB-231 breast) of 5.38 µM and a TGI (MDA-MB-231 breast) of over 100 µM. It also gave a GI50 (K-562 leukemia) of 5.46 µM, a TGI (K-562 leukemia) of over 100 µM and a GI50 (RPMI-8226 leukemia) of 2.32 µM. It also gave a TGI (RPMI-8226 leukemia) of over 100 µM, a GI50 (SK-MEL-5 melanoma) of 0.516 µM and a TGI (SK-MEL-5 melanoma) of 1.98 µM.

— PubChem BioAssay (NCI)
